Values quoted from earlier work in patent publication US6924277B2, “Cyclized benzamide neurokinin antagonists for use in therapy” (AstraZeneca AB, priority 2000, dated 2005).
Where two headings read alike, the source gives them in different places. Peptide text beside a SMILES is read from it.

How the values were obtained:
[1] = Forced swim test (depression model); only at 30 mg/kg bid; Vassout et al, Neuropeptides 26/S1: 38, 1994
[2] = Elevated plus-maze
[3] = Light-dark box
[4] = system: Marmoset; conditions: Marmoset human intruder; Walsh et al., Psychopharmacology 121: 186-191, 1995
[5] = Teixeira et al., Eur J Pharmacol 311(1): 7-14, 1996
[6] = Stratton et al., Eur. J. Pharmacol. 250: R11-12, 1993
[7] = Walsh et al., Psychopharmacology 121: 186-191, 1995

Row | Structure (SMILES) | Outcome [2, 5] | Outcome [3, 6] | Outcome [4] | Outcome [3, 7] | also measured
1 | Cc1cc(C)cc(C(=O)N2CC[C@H](NCc3ccnc4ccccc34)C[C@H]2Cc2ccccc2)c1 [CGP 49823] |  |  |  |  | Outcome [1]: antidepressant; Outcome ([2]; Vassout et al, Neuropeptides 26/S1: 38, 1994): inactive; Outcome (Social interaction test, Vassout et al, Neuropeptides 26/S1: 38, 1994): anxiolytic; Outcome (Social interaction, File, Pharm Bio B 58(3): 747-752, 1997): anxiolytic
2 | CN(Cc1ccccc1)C(=O)[C@H](Cc1ccc2ccccc2c1)NC(=O)[C@@H]1C[C@@H](O)CN1C(=O)c1cn(C)c2ccccc12 [FK888] | anxiolytic |  |  |  | 
3 | C[C@H](NC(=O)CNC(=O)C1CCCCC1)C(=O)N[C@H](Cc1c[nH]c2ccccc12)C(=O)N[C@@H](Cc1ccccc1)C(=O)N(C)C [GR100679] (HELM PEPTIDE1{[O=C(C1CCCCC1)[*:2]].G.A.[dW].F.[CN(C)[*:1]]}$$$$V2.0) |  | anxiolytic |  |  | 
4 | COC1(C[S@@+]([O-])c2ccccc2)CCN(CCc2c[nH]c3ccc(F)cc23)CC1 [GR159897] |  |  | anxiolytic | anxiolytic | 
5 | CC(=O)NC1(c2ccccc2)CCN(CC[C@H](CN(C)C(=O)c2ccccc2)c2ccc(Cl)c(Cl)c2)CC1 [SR48968] | anxiolytic | anxiolytic | anxiolytic | anxiolytic | 
